What was measured:
[1] = system: colon ACF and colon tumors in AOM treated mice; experiment: AOM-treated mice, colon aberrant crypt foci and tumors; format: in vivo, ICR mice
Method: (§1) Male ICR mice at 5 weeks of age were purchased from the BioLASCO Experimental Animal Center (Taiwan Co., Ltd). After 1 week of acclimation, animals were randomly distributed into control and experimental groups. All animals were housed in a controlled atmosphere (25±1° C. at 50% relative humidity) and with a 12-hour light/12-hour dark cycle. Animals had free access to food and water at all times. Food cups were replenished with fresh diet every day. The experimental protocol is illustrated in FIG. 6. Mice were divided into 6 groups. One group (negative control) was fed standard diet; one group (positive control) was fed standard diet but injected with azozymethane (AOM) twice a week for 2 weeks; the remaining 4 groups had AOM injection and dietary supplementation of different levels of EGCG esters (1a and EGCG-DHA ester mixture containing predominantly 1c and its homologues). 9(b): Identification of ACF The formalin-fixed colonic tissues were cut into proximal (1-2 cm from the cecum), middle (3-4 cm) and distal (1-2 cm from anus) segments and stained in 0.2% methylene blue solution for 10 min. Methylene blue-stained ACF in each focus were counted under a microscope (×40). The ACF location (distance from anus) and size (number of aberrant crypts) were recorded. […] The densities of the bands were quantitated with a computer densitometer (AlphaImager™ 2200 System). […]

HCV NS3/4A protease = HCV NS3/4A protease (Hepatitis C virus genotype 1a, UniProt P27958); experiment: Inhibition against HCV protease; format: biochemical
HCV NS3/4A protease, sequence (P27958 1027-1657): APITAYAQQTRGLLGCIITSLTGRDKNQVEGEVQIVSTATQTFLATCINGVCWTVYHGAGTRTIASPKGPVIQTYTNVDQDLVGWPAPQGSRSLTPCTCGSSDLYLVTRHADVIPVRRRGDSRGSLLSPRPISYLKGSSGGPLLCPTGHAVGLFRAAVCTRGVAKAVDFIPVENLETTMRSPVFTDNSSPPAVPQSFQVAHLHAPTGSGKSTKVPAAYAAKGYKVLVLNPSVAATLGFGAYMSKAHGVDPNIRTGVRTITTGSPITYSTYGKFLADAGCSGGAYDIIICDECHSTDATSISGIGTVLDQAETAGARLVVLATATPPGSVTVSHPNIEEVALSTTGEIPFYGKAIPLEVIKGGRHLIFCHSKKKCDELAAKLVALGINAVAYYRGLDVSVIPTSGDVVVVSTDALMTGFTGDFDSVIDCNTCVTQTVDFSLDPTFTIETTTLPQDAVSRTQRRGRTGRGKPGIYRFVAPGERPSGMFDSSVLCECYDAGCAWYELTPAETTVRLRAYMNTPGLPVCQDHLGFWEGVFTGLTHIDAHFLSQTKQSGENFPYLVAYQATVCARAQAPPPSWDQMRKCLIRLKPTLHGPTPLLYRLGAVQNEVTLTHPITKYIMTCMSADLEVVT
HCV NS3/4A protease, sequence (P27958 1658-1711): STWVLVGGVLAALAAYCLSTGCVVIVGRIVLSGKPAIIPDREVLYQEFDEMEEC
Method: An aliquot (2 μl) of test compounds dissolved in DMSO was added to each well of a 384-well black Assay plate, followed by addition of 8 μl of HCV NS3/4A protease solution (0.5 μg/ml). The reaction was initiated by adding 10 μl of freshly diluted substrate (100× dilution of a DMSO stocking solution). The mixture was incubated at room temperature for 30 min, and the fluorescence intensity was measured at 485 nm for excitation and 535 nm for emission by a TECAN GENios plate reader. […] All fluorescence values were corrected with a substrate blank. Samples were assayed at different concentrations to plot a concentration VS. inhibition percentage curve, and IC50 values were obtained from the curve for each sample. A known HCV protease inhibitor, embelin, was used as a reference. Discussion

COX-2 = COX-2 expression in colon of AOM-treated mice (western blot); format: in vivo, ICR mice; details: western blot of colon mucosa
Method: as §1

iNOS = iNOS expression in colon of AOM-treated mice (western blot); format: in vivo, ICR mice; details: western blot of colon mucosa
Method: as §1

Question: What does the source list for CCCC(=O)Oc1cc(OC(=O)CCC)c2c(c1)OC(c1cc(OC(=O)CCC)c(OC(=O)CCC)c(OC(=O)CCC)c1)C(OC(=O)c1cc(OC(=O)CCC)c(OC(=O)CCC)c(OC(=O)CCC)c1)C2 (stereo not drawn) [Compound 1g, EGCG-octabutyrate]?
Answer: Colon tumors ([1]; AOM treated mice, FIG. 7): inhibited to a lesser level; Tumorogenesis in terms of number and size of ACF ([1]; AOM-injected male ICR mice, dietary supplementation): significantly suppressed tumorogenesis; IC50 (HCV NS3/4A protease; HCV NS3/4A protease 0.5 μg/ml, 30 min, room temperature): 980 nM; HCV protease inhibitory activity relative to embelin (HCV NS3/4A protease; fold stronger than embelin): 10 fold; COX-2 expression in mice colon (COX-2): dose-dependent inhibitory effect; iNOS expression in mice colon (iNOS): dose-dependent inhibitory effect
